This is an account of results in a melting point compilation (Tetko et al.; mined from patent text by program, amines drawn as free bases though some values may be those of a salt).

As a reminder, the melting point is the temperature, or range, at which the solid turns liquid. The compound `Cn1ncnc1COc1nn2c(-c3ccccc3F)nncc2c1-c1cc(F)ccc1F` registered a melting point of 164 to 165 °C.

For `O=C1CCN(Cc2ccccc2O)CC1C(c1ccccc1)c1ccccc1` (stereo not drawn), the melting point was in the range of 109 to 110 °C.

`CS(=O)(=O)c1ccc(-c2sc(-c3ccccc3Cl)nc2-c2ccc(F)cc2)cc1` came in with a melting point of 133 to 134 °C.

On to `Cc1c(Cl)ccc(S(C)(=O)=O)c1Cl`, for which the melting point was 125 to 127 °C.

The compound `Cc1cc(NC(=O)C(C)(O)COc2ccc(OCCCl)cc2)ccc1[N+](=O)[O-]` (stereo not drawn) gave a melting point of 131 to 133 °C.

Turning to `CC(NC(=O)c1ccccc1)c1c[nH]c(-c2ccccc2)n1` (stereo not drawn), the melting point fell in the range of 132 to 135 °C.

In turn, `C[C@]1(CN2CCC(OCc3ccc(Cl)c(Cl)c3)CC2)Cn2cc([N+](=O)[O-])nc2O1` came in with a melting point of 132 to 136 °C.

`CC[C@H](C1CC1)n1cc(Cl)nc(N2CCc3cc(OC)cc(Br)c32)c1=O` had a melting point of 138 to 140 °C.

`Nc1ncc(Sc2ncccn2)s1` returned a melting point of 175 to 177 °C.

`CCCC(=O)c1ccnc(Cl)c1NC(=O)c1ccccc1F` gave a melting point of 142 °C.

Compound `Cc1nc2cc3c(cc2o1)C1(CO3)C(=O)N(C(c2ccccc2)c2ccccc2)c2ccccc21` (stereo not drawn) displayed a melting point of 240 to 242 °C.

For the compound `CN(C)c1cc2c(cc1O)CCC1C2CCC2(C)C(=O)CCC12` (stereo not drawn), the melting point is 160 to 161 °C.

In turn, `O=C(c1cccnc1)N1CCN=C1Nc1c(Cl)cccc1Cl` returned a melting point of 173 to 174 °C.

`Cc1ccc(-c2ccc3c(c2)C=C(C(=O)Nc2ccc(CN4CCC(O)CC4)cc2)CC3)cc1` displayed a melting point of 223 to 224 °C.

The compound `O=c1ccsc2c3ccccc3n(-c3ccccc3[N+](=O)[O-])c12` showed a melting point of 207 to 208 °C.

The compound `Cc1oc(-c2cccs2)nc1COc1ccc(CCCCn2ccnc2)cc1` yielded a melting point of 85 to 86 °C.

Take `O=C(NC(NC(=S)Nc1ccccc1F)C(F)(F)F)c1ccc(Cl)cc1` (stereo not drawn): the melting point was in the range of 197 to 200 °C.

Regarding `CC(C)(C)C1(Cl)Cc2cc(OCC(=O)O)c(Cl)c(Cl)c2C1=O` (stereo not drawn), the melting point was in the range of 184 to 186 °C.

Turning to `O=C(COc1cc(-c2ccsc2)nc2ccccc12)N1CCOCC1`, the melting point was determined as 183 °C.

`CC(=O)c1ccc(Oc2ccc(-c3scc(-c4ccccc4Cl)c3CC(=O)N=C(N)N)cc2)cc1` had a melting point of 117 to 118 °C.

As to `CCCC1=C([N+](=O)[O-])C(c2ccccc2[N+](=O)[O-])c2c[nH]nc2N1` (stereo not drawn), the melting point was 204 °C.

`CN1C(=O)C(c2ccccc2)(C2CCNCC2)N=C1N` (stereo not drawn) showed a melting point of 269 to 271 °C.

As to `O=C(O)COc1cccc2c1OCc1sc(SCC(c3ccccc3)c3ccccc3)nc1-2`, the melting point fell in the range of 182 to 184 °C.

In the case of `CCOC[C@@H]1[C@H](c2ccc(Cl)c(Cl)c2)C[C@H]2CC[C@@H]1N2C`, the melting point was in the range of 52.5 to 54.5 °C.

As to `O=C(C#Cc1ccc(C(F)(F)F)cc1Cl)Nc1ccc2oc(CN3CCCC3)nc2c1`, the melting point was 218 to 223 °C.

Compound `O=C1NC2CCC(=O)N2[C@H]1CO` (stereo partly drawn) showed a melting point of 61 to 75 °C.

Turning to `CCc1oc(C(O)(C(F)(F)F)C(F)(F)F)nc1-c1ccc(S(C)(=O)=O)cc1`, the melting point was 92 to 93 °C.

The compound `CC(=O)Nc1nc(C)c(S(=O)(=O)NCCN(C)C)s1` came in with a melting point of 143 °C.

In turn, `CC1=C(c2ccncc2)SC(O)C(=O)N1` (stereo not drawn) gave a melting point of 214 °C.

`CCOC1CCC2C3CCC4=CC(=O)CCC4=C3C(c3ccc(C=O)cc3)CC12C` (stereo not drawn): the melting point was 149 to 152 °C.

Take `FC(F)(F)c1ccc(-c2cc3ncnc(Nc4ccc5[nH]ccc5c4)c3s2)cc1`: the melting point was 181 to 194 °C.

Regarding `Cn1c(=O)c(NC(=O)Nc2ccc(F)cc2F)c(-c2ccccc2)c2cc(Cl)ccc21`, the melting point lay within 204 to 206 °C.

Consider `CCn1cc(C(=O)NCCc2ccncc2)c(=O)c2cnc(N3CCCC3)nc21`, for which the melting point lay within 175 to 177 °C.

Compound `COC(=O)N1Cc2c(O)noc2C(C)C1` (racemic) showed a melting point of 128 to 129 °C.

The compound `Cc1nc(N)sc1S(=O)(=O)N1CCC(O)C1` (racemic) gave a melting point of 165 °C.

Compound `CNS(=O)(=O)Cc1ccc2[nH]cc(CC(=O)O)c2c1` gave a melting point of 126 to 133 °C.

Consider `NS(=O)(=O)CC(=O)c1ccc(Cl)cc1Cl`, for which the melting point fell in the range of 136 to 139 °C.

For the compound `Cc1ccc(S(=O)(=O)Cl)c2c1CCN(C(=O)C(F)(F)F)C2`, the melting point lay in the range of 152 to 153 °C.

In turn, `COC(=O)[C@H](Cc1c[nH]c2ccccc12)N(CCN(CC(=O)OC(C)(C)C)CC(=O)OC(C)(C)C)CCN(CC(=O)OC(C)(C)C)CC(=O)OC(C)(C)C` had a melting point of 71 °C.

With `O=C(O)C1Cc2ccccc2CN1C(=O)c1ccc(Cl)cc1` (stereo not drawn), the melting point fell in the range of 77 to 79 °C.

With `Fc1ccc2nc(CBr)ccc2c1`, the melting point was 90 to 92 °C.

`COc1ccc(C(=CF)C(N)C(=O)O)cc1O` (stereo not drawn): the melting point was found to be 214 °C.

`CCON=C(CC)C1=C(O)CC(c2ccc3c(c2)NC(=O)C(C)O3)CC1=O` (stereo not drawn) yielded a melting point of 144 to 146 °C.

Compound `Cc1cccc2nc(Cn3cnc4c(N)ncnc43)n(-c3ccccc3C(C)C)c(=O)c12` gave a melting point of 258 °C.

In turn, `COc1ccc(Cl)c2c1CCCC2=O` yielded a melting point of 46 to 48 °C.

Compound `COc1cc(OC)nc(Sc2c([N+](=O)[O-])nc(C)n2C)n1` yielded a melting point of 228 to 230 °C.

Regarding `Cc1cc(-c2cc3cc(OCCNC[C@H](O)COc4ccccc4Cl)ccc3o2)no1`, the melting point fell in the range of 102 to 106 °C.

As to `CCCc1c2c(cc3c(=O)cc(C(=O)OCC)oc13)CCCC2`, the melting point was in the range of 98 to 99.5 °C.

As for `Oc1nnc2ccccc2n1`, the melting point lay in the range of 204 to 206 °C.

Take `CC(C)(C)OC(=O)Nc1cc(OC(C)(C)C)c(C#Cc2ccc(F)cc2)cc1[N+](=O)[O-]`: the melting point was determined as 201 °C.

Compound `CC1=C(C(=O)Nc2ccc(Cl)cc2)SCCS1` displayed a melting point of 115 to 117 °C.

For the compound `CNc1cc2c(Nc3ccc(Sc4nccn4C)c(Cl)c3)c(C#N)cnc2cc1N1CCC(N2CCCC2)CC1`, the melting point is 242 to 250 °C.

`Cc1cc2c3c(ccn3-c3ccccc3C(N3CCN(C)CC3)=N2)c1`: the melting point was in the range of 167 to 168 °C.

For the compound `CCOC(=O)C(Cc1ccc(Cl)cc1SCc1ccc(OC)cc1)(CC(C)C)C(=O)OCC`, the melting point lay within 95 to 97 °C.

In turn, `COC(=C(C)C#N)C(F)(F)F` displayed a melting point of 68 to 76.5 °C.

`COc1cccc(OCCO)c1-c1ccc(C[C@H](NC(=O)c2c(Cl)cccc2Cl)C(=O)O)cc1` yielded a melting point of 158 to 159 °C.

As for `CC1(C)Nc2ncc(I)cc2NC1=O`, the melting point is > 300 °C.

For `O=C(O)C1CC1(C(=O)O)c1ccc([N+](=O)[O-])cc1` (stereo not drawn), the melting point lay within 138 to 144 °C.

For the compound `CCOP(=O)(CN(Cc1ccncc1)C(=O)Cc1cc(C(C)(C)C)c(O)c(C(C)(C)C)c1)OCC`, the melting point is 160 to 162 °C.

For `CC1(C)CCC(C)(C)c2cc(-c3cc(-c4ccc(C(=O)O)cc4)ccc3OCCNC3CC3)ccc21`, the melting point amounted to 233 °C.

For `COc1ccc(C(=O)N2CC3CC2C(=O)O3)cc1OC` (stereo not drawn), the melting point came to 132 °C.

`C[C@@H]1Cc2ccsc2[C@H](c2ccccc2)N1CCNS(=O)(=O)c1ccc(NS(C)(=O)=O)cc1` (relative stereo) showed a melting point of 155 to 158 °C.

`CCCCSc1cc([N+](=O)[O-])cc2c1C(=O)OC2=O` registered a melting point of 95 to 97 °C.

Turning to `O=C(Nc1ccc(-c2nnn[nH]2)cc1)C(F)(F)C(F)(F)C(F)(F)F`, the melting point lay within 266 to 268 °C.

For `CC(=O)OCC1OC(n2cc(C(Br)=CBr)c(=O)[nH]c2=O)C(OC(C)=O)C1OC(C)=O` (stereo not drawn), the melting point fell in the range of 83 to 85 °C.

`COc1ccc(S(=O)(=O)Nc2cccnc2Nc2ccc(OS(=O)(=O)c3ccc(OC)cc3)cc2)cc1` showed a melting point of 122 to 123 °C.

On to `CCCCCC(=O)c1c(CN(CC)CC)nc2cc(OC)c(OC)cc2c1-c1ccc(OC)c(OC)c1`, for which the melting point was 104 to 106 °C.

In turn, `COc1cc(CC(N)=O)cc(OC(F)F)c1OC` had a melting point of 104 to 105 °C.

`CCC1(C)Cc2cc(O)c(Cl)c(Cl)c2C1=O` (stereo not drawn): the melting point lay within 215 to 217 °C.

`CCC(CC)Nc1cc(COC(C)=O)c([N+](=O)[O-])cc1[N+](=O)[O-]` registered a melting point of 46 to 52 °C.

`COc1cc(O)ccc1CCCc1ccc(O)cc1` gave a melting point of 88 to 89 °C.

As to `CC(O)c1ccc(-c2ccc(C(=O)OCc3ccc(Cl)cc3)cc2)cc1` (single isomer, unassigned; (+)), the melting point is 108 to 110 °C.

The compound `Cc1onc(-c2ccccc2)c1-c1cc2ccccc2[nH]1` yielded a melting point of 145 to 146 °C.

In turn, `CC(=NO)C(C)(C)NCC(C)CNC(C)(C)C(Cn1ccnc1[N+](=O)[O-])=NO` (stereo not drawn) returned a melting point of 167 to 168 °C.

For the compound `Nc1nc(-n2cc(C(=O)O)c(=O)c3cc(F)c(F)c(Cl)c32)ccc1F`, the melting point is 232 to 235 °C.

`NNc1ccc2c(c1)CCNC2=O`: the melting point fell in the range of 158 to 160 °C.

As to `CCCCc1nc(Cl)c(CO)n1Cc1ccc2oc(-c3ccccc3-c3nnn[nH]3)c(Br)c2c1`, the melting point lay within 193 to 197 °C.

The compound `COC(=O)CC1OCCN(CCc2c[nH]c3ccc(C)cc23)C1=O` (stereo not drawn) yielded a melting point of 138 °C.

For the compound `CCn1ncc2c3onc(-c4ccc(C)cc4)c3cnc21`, the melting point lay within 173 to 175 °C.

`Cc1ccc2[nH]c(S(=O)(=O)CC(F)(F)F)nc2c1`: the melting point was in the range of 160 to 161 °C.

Regarding `Oc1ccc(N=C2SCCS2)cc1`, the melting point was 204 to 208 °C.

Regarding `NCc1cc(-c2ccnc(Nc3cccc(OC(F)(F)C(F)F)c3)n2)ccn1`, the melting point fell in the range of 64 to 67 °C.

In turn, `CN1C(=O)C(C)(C)C(=O)N(C)c2cc(N)ccc21` registered a melting point of 221 to 222 °C.

As for `CC(=O)N1CCc2c(sc(C)c2C(=O)CCN2CCC(c3noc4cc(F)ccc34)CC2)C1`, the melting point lay in the range of 180 to 182 °C.

The compound `CCNC(=O)c1c([Si](C)(C)C)ccc(C#C[Si](C)(C)C)c1Cl` showed a melting point of 131 to 132 °C.

In turn, `CCCCCc1ccc(NS(=O)(=O)c2ccc(N3CCNC3=O)cc2)cc1` yielded a melting point of 207 to 209 °C.

Turning to `CC1CCc2ccc(N)c3c(=O)c(C(=O)O)cn1c23` (stereo not drawn), the melting point fell in the range of 247 to 249 °C.

On to `Cc1cc(C)c(N2C(=N)N(c3c(C)cccc3C)CC2C)c(C)c1` (stereo not drawn), for which the melting point lay in the range of 128 to 130 °C.
